# Compound: Cc1ccc(NC(=O)c2ccc(CN3CCN(C)CC3)cc2)cc1Nc1nc(-c2cccnc2)cs1 [Masitinib] + O=C(c1cc(Cc2n[nH]c(=O)c3ccccc23)ccc1F)N1CCN(C(=O)C2CC2)CC1 [Olaparib] (partner 8 µM)
# Test: relative viability (nuclei count vs DMSO), 5 days (fraction); higher = more cells survive
# Conditions: first compound 0.01 µM
# Method in brief: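 A single step with final 0.05% Triton X-100, 1% formaldehyde and 1 ug/ml Hoechst fixed the cells and stained nuclei 5 days after treatment. Lung cancer cell lines in 1536-well plates had been treated by pin tool the day after seeding with one drug alone or a fixed anchor-drug dose plus five library-drug doses (not always all listed) in √10 steps, and nuclei were counted on 4× images. Relative viability is the ratio of nuclei in treated wells to nuclei in vehicle wells, taken as the median of duplicate plates.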
row,Cell Line,relative viability
1,NCI-H2342,0.447
2,NCI-H1793,0.893
3,H3255,0.474
4,COR-L23,0.35
5,COR-L 105,0.655
6,IA-LM,0.896
7,LOU-NH91,0.883
8,ChaGo-K-1,0.39
9,NCI-H358,0.549
10,NCI-H3122,0.64
11,HOP-62,0.312
12,HCC-44,0.939
13,A549,0.363
14,SW 900,0.809
15,LXF-289,0.948
16,BEN,1.21
17,HARA,0.749
18,NCI-H1648,1.04
19,HCC-78,0.798
20,NCI-H441,0.53
21,LCLC-97TM1,0.402
22,NCI-H2023,0.63
23,A-427,0.621
24,NCI-H460,0.38
25,NCI-H727,0.76

row,Cell Line,relative viability
1,NCI-H1755,0.769
2,NCI-H520,0.305
3,NCI-H2405,0.78
4,SW 1573,0.505
5,NCI-H1395,0.473
6,201T,0.702
7,NCI-H1975,0.79
8,HCC-827,0.564
9,NCI-H1299,0.936
10,NCI-H2347,0.507
11,NCI-H1355,0.727
12,NCI-H650,0.41
13,CAL-12T,0.716
14,NCI-H1666,0.736
15,EPLC-272H,0.927
16,NCI-H23,0.294
17,NCI-H1437,0.623
18,NCI-H322M,0.733
19,NCI-H1792,0.528
20,NCI-H2085,0.729
21,HCC-15,0.628
22,PC-3 [JPC-3],0.985
23,EKVX,0.653
24,LC-2-ad,0.708
25,NCI-H1650,0.675

# Same assay, conditions: first compound 0.03162 µM
row,Cell Line,relative viability
1,NCI-H522,0.766
2,NCI-H838,0.739
3,NCI-H1651,0.216
4,EBC-1,0.673
5,NCI-H1734,0.564
6,NCI-H2009,0.546
7,LU99A,0.276
8,PC-14,0.256
9,LCLC-103H,0.747
10,NCI-H596,0.657
11,NCI-H2228,0.589
12,EMC-BAC-2,0.484
13,NCI-H2087,0.583
14,Calu-6,0.656
15,HCC-366,0.384
16,NCI-H1703,0.267
17,NCI-H647,0.408
18,LK-2,0.679
19,NCI-H2126,0.965
20,NCI-H2342,0.485
21,NCI-H1793,0.777
22,H3255,0.566
23,COR-L23,0.329
24,COR-L 105,0.532

row,Cell Line,relative viability
1,IA-LM,0.875
2,LOU-NH91,0.917
3,ChaGo-K-1,0.435
4,NCI-H358,0.621
5,NCI-H3122,0.604
6,HOP-62,0.819
7,HCC-44,0.968
8,A549,0.184
9,SW 900,0.878
10,LXF-289,0.99
11,BEN,1.1
12,HARA,0.507
13,NCI-H1648,0.78
14,HCC-78,0.855
15,NCI-H441,0.403
16,LCLC-97TM1,0.396
17,NCI-H2023,0.422
18,A-427,0.711
19,NCI-H460,0.381
20,NCI-H727,0.774
21,NCI-H1755,0.832
22,NCI-H520,0.409
23,NCI-H2405,0.816
24,SW 1573,0.472

row,Cell Line,relative viability
1,NCI-H1395,0.465
2,201T,0.901
3,NCI-H1975,0.727
4,HCC-827,0.642
5,NCI-H1299,0.988
6,NCI-H2347,0.591
7,NCI-H1355,0.665
8,NCI-H650,0.386
9,CAL-12T,0.696
10,NCI-H1666,0.716
11,NCI-H23,0.256
12,NCI-H1915,0.289
13,NCI-H1437,0.603
14,NCI-H322M,0.726
15,NCI-H1792,0.257
16,NCI-H2085,0.805
17,HCC-15,0.669
18,NCI-H1944,0.344
19,PC-3 [JPC-3],1.11
20,EKVX,0.704
21,LC-2-ad,0.715
22,NCI-H1650,0.711

# Same assay, conditions: first compound 0.1 µM
row,Cell Line,relative viability
1,NCI-H522,0.66
2,NCI-H838,0.83
3,NCI-H1651,0.177
4,EBC-1,0.814
5,NCI-H1734,0.623
6,NCI-H2009,0.818
7,LU99A,0.246
8,PC-14,0.249
9,LCLC-103H,0.75
10,NCI-H596,0.634
11,NCI-H2228,0.622
12,EMC-BAC-2,0.481
13,NCI-H2087,0.63
14,Calu-6,0.63
15,HCC-366,0.357
16,NCI-H1703,0.231
17,NCI-H647,0.789
18,LK-2,1.01
19,NCI-H2126,1
20,NCI-H2342,0.425
21,NCI-H1793,1.04
22,H3255,0.513
23,COR-L23,0.361

row,Cell Line,relative viability
1,COR-L 105,0.689
2,IA-LM,0.929
3,LOU-NH91,0.902
4,ChaGo-K-1,0.405
5,NCI-H358,0.603
6,NCI-H3122,0.703
7,HOP-62,0.451
8,HCC-44,0.979
9,A549,0.338
10,SW 900,0.918
11,LXF-289,1.06
12,BEN,1.4
13,HARA,1.15
14,NCI-H1648,1.08
15,HCC-78,0.871
16,NCI-H441,0.602
17,LCLC-97TM1,0.406
18,NCI-H2023,0.458
19,A-427,0.654
20,NCI-H460,0.436
21,NCI-H727,0.686
22,NCI-H1755,0.893
23,NCI-H520,0.362

row,Cell Line,relative viability
1,NCI-H2405,0.873
2,SW 1573,0.591
3,NCI-H1395,0.471
4,201T,0.765
5,NCI-H1975,0.78
6,HCC-827,0.655
7,NCI-H1299,0.993
8,NCI-H2347,0.597
9,NCI-H1355,0.754
10,NCI-H650,0.422
11,CAL-12T,0.688
12,NCI-H1666,0.724
13,EPLC-272H,0.866
14,NCI-H23,0.295
15,NCI-H1437,0.668
16,NCI-H322M,0.857
17,NCI-H1792,0.303
18,NCI-H2085,0.798
19,HCC-15,0.753
20,PC-3 [JPC-3],1.22
21,EKVX,0.766
22,LC-2-ad,0.719
23,NCI-H1650,0.751

# Same assay, conditions: first compound 0.3162 µM
row,Cell Line,relative viability
1,NCI-H522,0.534
2,NCI-H838,0.638
3,NCI-H1651,0.181
4,EBC-1,0.713
5,NCI-H1734,0.618
6,NCI-H2009,0.702
7,LU99A,0.255
8,PC-14,0.232
9,LCLC-103H,0.758
10,NCI-H596,0.581
11,NCI-H2228,0.548
12,EMC-BAC-2,0.416
13,NCI-H2087,0.523
14,Calu-6,0.563
15,HCC-366,0.343
16,NCI-H1703,0.174
17,NCI-H647,0.596
18,LK-2,0.615
19,NCI-H2126,0.992
20,NCI-H2342,0.44
21,NCI-H1793,1.08
22,H3255,0.545
23,COR-L23,0.309

row,Cell Line,relative viability
1,COR-L 105,0.494
2,IA-LM,0.796
3,LOU-NH91,0.869
4,ChaGo-K-1,0.35
5,NCI-H358,0.604
6,NCI-H3122,0.589
7,HOP-62,0.289
8,HCC-44,0.916
9,A549,0.301
10,SW 900,0.684
11,LXF-289,1.04
12,BEN,1.23
13,HCC-78,0.712
14,NCI-H441,0.586
15,LCLC-97TM1,0.473
16,NCI-H2023,0.427
17,A-427,0.489
18,NCI-H460,0.463
19,NCI-H727,0.819
20,NCI-H1755,0.849
21,NCI-H520,0.332
22,NCI-H2405,0.722
23,SW 1573,0.431

row,Cell Line,relative viability
1,NCI-H1395,0.422
2,201T,0.721
3,NCI-H1975,0.642
4,HCC-827,0.624
5,NCI-H1299,1.06
6,NCI-H2347,0.621
7,NCI-H1355,0.521
8,NCI-H650,0.394
9,CAL-12T,0.712
10,NCI-H1666,0.695
11,EPLC-272H,0.655
12,NCI-H23,0.242
13,NCI-H1915,0.254
14,NCI-H1437,0.616
15,NCI-H322M,0.729
16,NCI-H1792,0.377
17,NCI-H2085,0.815
18,HCC-15,0.735
19,NCI-H1944,0.364
20,PC-3 [JPC-3],0.932
21,LC-2-ad,0.702
22,NCI-H1650,0.614

# Same assay, conditions: first compound 1 µM
row,Cell Line,relative viability
1,NCI-H522,0.619
2,NCI-H838,0.832
3,NCI-H1651,0.169
4,EBC-1,0.615
5,NCI-H1734,0.6
6,NCI-H2009,0.635
7,LU99A,0.269
8,PC-14,0.204
9,LCLC-103H,0.781
10,NCI-H596,0.633
11,NCI-H2228,0.661
12,EMC-BAC-2,0.456
13,NCI-H2087,0.7
14,Calu-6,0.547
15,HCC-366,0.396
16,NCI-H1703,0.277
17,NCI-H647,0.642
18,LK-2,0.7
19,NCI-H2126,0.991
20,NCI-H2342,0.36
21,NCI-H1793,0.768
22,H3255,0.555
23,COR-L23,0.27
24,COR-L 105,0.498

row,Cell Line,relative viability
1,IA-LM,0.836
2,LOU-NH91,0.908
3,ChaGo-K-1,0.392
4,NCI-H358,0.607
5,NCI-H3122,0.615
6,HOP-62,0.418
7,HCC-44,0.963
8,A549,0.325
9,SW 900,0.966
10,LXF-289,1.02
11,BEN,1.08
12,HARA,1.13
13,NCI-H1648,0.96
14,HCC-78,0.824
15,NCI-H441,0.553
16,LCLC-97TM1,0.427
17,NCI-H2023,0.44
18,A-427,0.663
19,NCI-H460,0.415
20,NCI-H727,0.676
21,NCI-H1755,0.755
22,NCI-H520,0.277
23,NCI-H2405,0.827
24,SW 1573,0.453

row,Cell Line,relative viability
1,NCI-H1395,0.432
2,201T,0.806
3,NCI-H1975,0.839
4,HCC-827,0.695
5,NCI-H1299,0.846
6,NCI-H2347,0.53
7,NCI-H1355,0.761
8,NCI-H650,0.324
9,CAL-12T,0.708
10,NCI-H1666,0.73
11,EPLC-272H,0.768
12,NCI-H23,0.264
13,NCI-H1915,0.238
14,NCI-H1437,0.61
15,NCI-H322M,0.128
16,NCI-H1792,0.396
17,NCI-H2085,0.728
18,HCC-15,0.82
19,NCI-H1944,0.374
20,PC-3 [JPC-3],1.11
21,EKVX,0.744
22,LC-2-ad,0.73
23,NCI-H1650,0.884

# From the supplement of paper PMC10307832
